Emax data for 30 compounds are collected here from patent US20260256751A1, “COMBINATION OF BETA-2-ADRENERGIC RECEPTOR AGONISTS AND GLP-1 RECEPTOR AGONISTS FOR USE IN TREATING HYPERGLYCAEMIA” (ATROGI AB, priority 2023, published 2026).

The test system of assay [1] is differentiated L6-myotubes. As to the kind of experiment: Glucose uptake screen (Biological example 1 of WO 2019/053427). The format is cell-based. The note with it: compound at 10 μM, activity relative to isoproterenol at 10 μM, read-out: Biological example 1 of WO 2019/053427 (GU). Put shortly: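 Rat L6 myoblasts were differentiated into myotubes over 7 days in 2% FBS, then serum-starved overnight. Cells were stimulated with 1×10^−5 M compound plus β2 antagonist ICI-118551 for 1 h 40 min and re-dosed for 20 min in glucose-free medium. Uptake of 50 nM ^3H-2-deoxyglucose over 10 min was counted after NaOH lysis.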

The subject of assay [2] is differentiated L6-myotubes. Kind of assay: cAMP production relative to isoprenaline (Biological example 2 of WO 2019/053427). Format: cell-based. The note with it: 0.25 h, compound at 10 μM, activity relative to isoproterenol at 10 μM. The procedure, abridged:
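Differentiated L6 myotubes stimulated 15 min with test compound or isoprenaline, each at final 1×10^−5 M, in HBSS with 1% BSA, 5 mM HEPES, 1 mM IBMX, pH 7.4. cAMP production by the compound expressed relative to that induced by the same concentration of isoprenaline.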
Background: cAMP levels reflect the balance of adenylyl cyclase and phosphodiesterase activity.

Each structure is given as a SMILES string.

On to `CC(C)(CC[C@H]1CC[C@@H](O)CC1)NC[C@H](O)c1cccc(F)c1` [Compound 295, (R)-2-{1,1-dimethyl-3-[(1s,4R)-4-hydroxycyclohexyl]propylamino}-1-(m-fluorophenyl)-1-ethanol], for which the Emax at 10 µM in assay [1] is over 75%; in assay [2], under 25%.
For the compound `CC(C)(CC[C@H]1CC[C@@H](O)CC1)NC[C@H](O)c1cncc(F)c1` [Compound 296, (R)-2-{1,1-dimethyl-3-[(1s,4R)-4-hydroxycyclohexyl]propylamino}-1-(5-fluoro-3-pyridyl)-1-ethanol], the Emax at 10 µM is over 75% in assay [1] and under 25% in assay [2].
In the same order, the values of `O[C@@H](CNCC[C@H]1CC[C@@H](O)CC1)c1cccc(F)c1` [Compound 297, (R)-1-(m-fluorophenyl)-2-{2-[(1s,4S)-4-hydroxycyclohexyl]ethylamino}-1-ethanol] are 50 to 75% and under 25%.
As to `O[C@@H](CNCC[C@H]1CC[C@H](O)CC1)c1cccc(F)c1` [Compound 298, (R)-1-(m-fluorophenyl)-2-{2-[(1r,4R)-4-hydroxycyclohexyl]ethylamino}-1-ethanol], the results for the Emax at 10 µM in assay [1] and in assay [2] were 25 to 50% and under 25%, respectively.
As to `CC(C)(C[C@H]1CC[C@H](O)CC1)NC[C@H](O)c1cncc(F)c1` [Compound 299, (R)-2-{1,1-dimethyl-2-[(1r,4R)-4-hydroxycyclohexyl]ethylamino}-1-(5-fluoro-3-pyridyl)-1-ethanol], the values for the Emax at 10 µM in assay [1] and in assay [2] were 50 to 75% and under 25%, respectively.
In the case of `CC(C)(C[C@H]1CC[C@H](O)CC1)NC[C@H](O)c1cccc(F)c1` [Compound 300, (R)-2-{1,1-dimethyl-2-[(1r,4R)-4-hydroxycyclohexyl]ethylamino}-1-(m-fluorophenyl)-1-ethanol], the Emax at 10 µM in assay [1] is over 75%; in assay [2], under 25%.
For the compound `CC(C)(C[C@H]1CC[C@@H](O)CC1)NC[C@H](O)c1cncc(F)c1` [Compound 301, (R)-2-{1,1-dimethyl-2-[(1s,4S)-4-hydroxycyclohexyl]ethylamino}-1-(5-fluoro-3-pyridyl)-1-ethanol], the results for the Emax at 10 µM in assay [1] and in assay [2] were over 75% and under 25%, respectively.
In the same order, the values of `CC(C)(C[C@H]1CC[C@@H](O)CC1)NC[C@H](O)c1cccc(F)c1` [Compound 302, (R)-2-{1,1-dimethyl-2-[(1s,4S)-4-hydroxycyclohexyl]ethylamino}-1-(m-fluorophenyl)-1-ethanol] are 50 to 75% and under 25%.
In the same order, the values of `O[C@@H](CNCCC[C@H]1CC[C@H](O)CC1)c1cccc(F)c1` [Compound 303, (R)-1-(m-fluorophenyl)-2-{3-[(1r,4S)-4-hydroxycyclohexyl]propylamino}-1-ethanol] are 50 to 75% and under 25%.
Regarding `O[C@@H](CNCCC[C@H]1CC[C@@H](O)CC1)c1cncc(F)c1` [Compound 304, (R)-1-(5-fluoro-3-pyridyl)-2-{3-[(1s,4R)-4-hydroxycyclohexyl]propylamino}-1-ethanol], the Emax at 10 µM is 50 to 75% in assay [1] and under 25% in assay [2].
On to `O[C@@H](CNCCC[C@H]1CC[C@H](O)CC1)c1cncc(F)c1` [Compound 305, (R)-1-(5-fluoro-3-pyridyl)-2-{3-[(1r,4S)-4-hydroxycyclohexyl]propylamino}-1-ethanol], for which the Emax at 10 µM in assay [1] was 25 to 50%; in assay [2], under 25%.
As to `O[C@@H](CNCCC[C@H]1CC[C@@H](O)CC1)c1cccc(F)c1` [Compound 306, (R)-1-(m-fluorophenyl)-2-{3-[(1s,4R)-4-hydroxycyclohexyl]propylamino}-1-ethanol], the values for the Emax at 10 µM in assay [1] and in assay [2] were 25 to 50% and under 25%, respectively.
For the compound `CC(=O)N[C@H]1CC[C@@H](CNC[C@H](O)c2cccc(F)c2)CC1` [Compound 307, N-[(1S,4s)-4-{[(R)-2-(m-fluorophenyl)-2-hydroxyethylamino]methyl}cyclohexyl]acetamide], the Emax at 10 µM in assay [1] is 50 to 75%; in assay [2], under 25%.
As to `CC(=O)N[C@H]1CC[C@H](CNC[C@H](O)c2cccc(F)c2)CC1` [Compound 308, N-[(1R,4r)-4-{[(R)-2-(m-fluorophenyl)-2-hydroxyethylamino]methyl}cyclohexyl]acetamide], the figures for the Emax at 10 µM in assay [1] and in assay [2] were 50 to 75% and under 25%, respectively.
Turning to `CC(=O)N[C@H]1CC[C@H](CNC[C@H](O)c2cncc(F)c2)CC1` [Compound 309, N-[(1R,4r)-4-{[(R)-2-(5-fluoro-3-pyridyl)-2-hydroxyethylamino]methyl}cyclohexyl]acetamide], the Emax at 10 µM was 50 to 75% in assay [1] and under 25% in assay [2].
As to `CC(=O)N[C@H]1CC[C@@H](CNC[C@H](O)c2cncc(F)c2)CC1` [Compound 310, N-[(1S,4s)-4-{[(R)-2-(5-fluoro-3-pyridyl)-2-hydroxyethylamino]methyl}cyclohexyl]acetamide], the Emax at 10 µM is 25 to 50% in assay [1] and under 25% in assay [2].
For `CS(=O)(=O)N[C@H]1CC[C@H](CNC[C@H](O)c2cccc(F)c2)CC1` [Compound 311, (R)-1-(m-fluorophenyl)-2-({[(1r,4R)-4-(mesylamino)cyclohexyl]methyl}amino)-1-ethanol], the Emax at 10 µM in assay [1] is 50 to 75%; in assay [2], under 25%.
For `CS(=O)(=O)N[C@H]1CC[C@@H](CNC[C@H](O)c2cccc(F)c2)CC1` [Compound 312, (R)-1-(m-fluorophenyl)-2-({[(1s,4S)-4-(mesylamino)cyclohexyl]methyl}amino)-1-ethanol], the Emax at 10 µM in assay [1] is 50 to 75%; in assay [2], under 25%.
As for `CS(=O)(=O)N[C@H]1CC[C@H](CNC[C@H](O)c2cncc(F)c2)CC1` [Compound 313, (R)-1-(5-fluoro-3-pyridyl)-2-({[(1r,4R)-4-(mesylamino)cyclohexyl]methyl}amino)-1-ethanol], the Emax at 10 µM in assay [1] is 25 to 50%; in assay [2] it was under 25%.
Regarding `CS(=O)(=O)N[C@H]1CC[C@@H](CNC[C@H](O)c2cncc(F)c2)CC1` [Compound 314, (R)-1-(5-fluoro-3-pyridyl)-2-({[(1s,4S)-4-(mesylamino)cyclohexyl]methyl}amino)-1-ethanol], the results for the Emax at 10 µM in assay [1] and in assay [2] were 50 to 75% and under 25%, respectively.
In the case of `O=C(N[C@H]1CC[C@H](CNC[C@H](O)c2cccc(F)c2)CC1)c1ccccc1` [Compound 315, N-[(1R,4r)-4-{[(R)-2-(m-fluorophenyl)-2-hydroxyethylamino]methyl}cyclohexyl]benzamide], the Emax at 10 µM in assay [1] is over 75%; in assay [2], under 25%.
As for `O=C(N[C@H]1CC[C@@H](CNC[C@H](O)c2cccc(F)c2)CC1)c1ccccc1` [Compound 316, N-[(1S,4s)-4-{[(R)-2-(m-fluorophenyl)-2-hydroxyethylamino]methyl}cyclohexyl]benzamide], the Emax at 10 µM was 50 to 75% in assay [1] and under 25% in assay [2].
In the case of `O=C(N[C@H]1CC[C@H](CNC[C@H](O)c2cncc(F)c2)CC1)c1ccccc1` [Compound 317, N-[(1R,4r)-4-{[(R)-2-(5-fluoro-3-pyridyl)-2-hydroxyethylamino]methyl}cyclohexyl]benzamide], the Emax at 10 µM is 50 to 75% in assay [1] and under 25% in assay [2].
For `O=C(N[C@H]1CC[C@@H](CNC[C@H](O)c2cncc(F)c2)CC1)c1ccccc1` [Compound 318, N-[(1S,4s)-4-{[(R)-2-(5-fluoro-3-pyridyl)-2-hydroxyethylamino]methyl}cyclohexyl]benzamide], the Emax at 10 µM was 50 to 75% in assay [1] and under 25% in assay [2].
As for `CC(C)(CC[C@H]1CC[C@H](O)CC1)NC[C@H](O)c1ccccc1F` [Compound 319, (R)-2-{1,1-dimethyl-3-[(1r,4S)-4-hydroxycyclohexyl]propylamino}-1-(o-fluorophenyl)-1-ethanol], the results for the Emax at 10 µM in assay [1] and in assay [2] were over 75% and under 25%, respectively.
Consider `CC(C)(CC[C@H]1CC[C@@H](O)CC1)NC[C@H](O)c1ccccc1F` [Compound 320, (R)-2-{1,1-dimethyl-3-[(1s,4R)-4-hydroxycyclohexyl]propylamino}-1-(o-fluorophenyl)-1-ethanol], for which the Emax at 10 µM in assay [1] was over 75%; in assay [2] it was 25 to 50%.
For the compound `COC(=O)[C@H]1CC[C@@H](C(C)(C)NC[C@H](O)c2cncc(F)c2)CC1` [Compound 321, (1S,4s)-8-[(R)-2-(5-fluoro-3-pyridyl)-2-hydroxyethylamino]-7-methoxy-p-menthan-7-one], the figures for the Emax at 10 µM in assay [1] and in assay [2] were 50 to 75% and under 25%, respectively.
In the case of `COC(=O)[C@H]1CC[C@@H](CC(C)(C)NC[C@H](O)c2cncc(F)c2)CC1` [Compound 322, methyl (1S,4s)-4-{2-[(R)-2-(5-fluoro-3-pyridyl)-2-hydroxyethylamino]-2-methylpropyl}cyclohexanecarboxylate], the figures for the Emax at 10 µM in assay [1] and in assay [2] were over 75% and under 25%, respectively.
In the same order, the values of `CC(C)(NC[C@H](O)c1cncc(F)c1)[C@H]1CC[C@@H](C(=O)O)CC1` [Compound 323, (1S,4s)-8-[(R)-2-(5-fluoro-3-pyridyl)-2-hydroxyethylamino]-7-hydroxy-p-menthan-7-one] are 25 to 50% and 50 to 75%.
As to `CC(C)(C[C@H]1CC[C@@H](C(=O)O)CC1)NC[C@H](O)c1cncc(F)c1` [Compound 324, (1S,4s)-4-{2-[(R)-2-(5-fluoro-3-pyridyl)-2-hydroxyethylamino]-2-methylpropyl}cyclohexanecarboxylic acid], the values for the Emax at 10 µM in assay [1] and in assay [2] were 25 to 50% and under 25%, respectively.
